Experimental data reported in patent publication US10231954B2, “Neurodegenerative therapies” (LYTIX BIOPHARMA AS, priority 2014, dated 2019).
Read-outs that look alike come from different tables or passages of the source.

Experiments:
Assay type in all cases: biochemical
[1] = molecular target: T1, MARK4 (Homo sapiens, UniProt Q96L34); assay: Kinase profiling MARK4; details: for remaining activity at 100 µM: read-out: residual kinase activity, MARK4
T1 sequence (Q96L34 1-752): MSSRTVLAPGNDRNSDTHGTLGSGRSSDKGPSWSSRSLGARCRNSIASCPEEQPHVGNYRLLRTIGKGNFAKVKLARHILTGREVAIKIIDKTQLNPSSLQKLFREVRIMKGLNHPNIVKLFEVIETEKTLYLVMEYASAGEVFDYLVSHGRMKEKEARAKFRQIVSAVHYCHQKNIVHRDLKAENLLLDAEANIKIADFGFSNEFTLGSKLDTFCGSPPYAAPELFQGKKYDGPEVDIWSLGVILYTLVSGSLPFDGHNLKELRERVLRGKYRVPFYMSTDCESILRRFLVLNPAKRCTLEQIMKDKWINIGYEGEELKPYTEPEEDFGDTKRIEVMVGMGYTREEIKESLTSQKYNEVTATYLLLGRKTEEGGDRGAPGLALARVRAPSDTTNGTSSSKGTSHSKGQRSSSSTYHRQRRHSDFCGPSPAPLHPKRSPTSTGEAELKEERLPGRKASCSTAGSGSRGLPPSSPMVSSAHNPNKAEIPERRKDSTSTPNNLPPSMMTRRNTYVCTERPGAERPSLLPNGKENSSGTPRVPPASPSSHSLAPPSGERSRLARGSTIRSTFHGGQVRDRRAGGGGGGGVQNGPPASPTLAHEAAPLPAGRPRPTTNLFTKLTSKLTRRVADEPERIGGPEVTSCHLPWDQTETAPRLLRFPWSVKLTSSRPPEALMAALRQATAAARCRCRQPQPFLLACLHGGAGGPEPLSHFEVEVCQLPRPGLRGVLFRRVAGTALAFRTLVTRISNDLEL
From the text: (§1) Any value less that 25 is considered to be highly significant inhibition.

[2] = molecular target: T2, EIF2AK3 (Homo sapiens, UniProt Q9NZJ5); assay: Kinase profiling EIF2AK3; details: for remaining activity at 100 µM: read-out: residual kinase activity, EIF2AK3
T2 sequence (Q9NZJ5 30-1116): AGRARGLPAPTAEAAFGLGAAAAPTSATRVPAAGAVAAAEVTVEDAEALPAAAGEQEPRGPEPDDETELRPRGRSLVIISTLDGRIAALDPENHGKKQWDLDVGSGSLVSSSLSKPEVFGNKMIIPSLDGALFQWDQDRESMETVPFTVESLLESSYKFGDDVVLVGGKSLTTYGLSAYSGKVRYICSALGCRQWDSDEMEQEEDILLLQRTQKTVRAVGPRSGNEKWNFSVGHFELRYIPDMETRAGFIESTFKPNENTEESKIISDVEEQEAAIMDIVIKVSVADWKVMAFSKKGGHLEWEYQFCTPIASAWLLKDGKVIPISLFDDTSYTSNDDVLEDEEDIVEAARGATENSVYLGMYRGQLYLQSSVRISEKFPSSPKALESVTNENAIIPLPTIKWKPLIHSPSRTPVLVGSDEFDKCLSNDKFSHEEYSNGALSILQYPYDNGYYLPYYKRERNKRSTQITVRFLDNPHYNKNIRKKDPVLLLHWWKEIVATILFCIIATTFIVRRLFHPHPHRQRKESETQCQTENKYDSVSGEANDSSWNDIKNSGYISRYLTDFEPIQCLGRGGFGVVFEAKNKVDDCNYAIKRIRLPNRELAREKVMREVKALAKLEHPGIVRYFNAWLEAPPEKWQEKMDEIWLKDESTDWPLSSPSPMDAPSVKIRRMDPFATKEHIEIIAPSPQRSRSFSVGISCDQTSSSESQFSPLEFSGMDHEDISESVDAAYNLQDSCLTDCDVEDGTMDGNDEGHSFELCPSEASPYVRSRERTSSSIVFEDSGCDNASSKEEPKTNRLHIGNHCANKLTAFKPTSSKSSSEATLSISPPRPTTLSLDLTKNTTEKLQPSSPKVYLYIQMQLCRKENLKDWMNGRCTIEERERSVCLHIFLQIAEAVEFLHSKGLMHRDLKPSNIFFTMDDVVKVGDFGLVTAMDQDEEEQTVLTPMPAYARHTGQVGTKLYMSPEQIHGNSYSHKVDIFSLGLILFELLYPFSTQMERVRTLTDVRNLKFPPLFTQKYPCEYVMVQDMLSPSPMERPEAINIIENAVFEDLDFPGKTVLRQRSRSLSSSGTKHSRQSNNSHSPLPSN
From the text: as §1

[3] = molecular target: WNK1 (Homo sapiens, UniProt Q9H4A3); assay: Kinase profiling WNK1; details: for remaining activity at 100 µM: read-out: residual kinase activity, WNK1
Chain of WNK1 (Q9H4A3 whole entry, species assumed): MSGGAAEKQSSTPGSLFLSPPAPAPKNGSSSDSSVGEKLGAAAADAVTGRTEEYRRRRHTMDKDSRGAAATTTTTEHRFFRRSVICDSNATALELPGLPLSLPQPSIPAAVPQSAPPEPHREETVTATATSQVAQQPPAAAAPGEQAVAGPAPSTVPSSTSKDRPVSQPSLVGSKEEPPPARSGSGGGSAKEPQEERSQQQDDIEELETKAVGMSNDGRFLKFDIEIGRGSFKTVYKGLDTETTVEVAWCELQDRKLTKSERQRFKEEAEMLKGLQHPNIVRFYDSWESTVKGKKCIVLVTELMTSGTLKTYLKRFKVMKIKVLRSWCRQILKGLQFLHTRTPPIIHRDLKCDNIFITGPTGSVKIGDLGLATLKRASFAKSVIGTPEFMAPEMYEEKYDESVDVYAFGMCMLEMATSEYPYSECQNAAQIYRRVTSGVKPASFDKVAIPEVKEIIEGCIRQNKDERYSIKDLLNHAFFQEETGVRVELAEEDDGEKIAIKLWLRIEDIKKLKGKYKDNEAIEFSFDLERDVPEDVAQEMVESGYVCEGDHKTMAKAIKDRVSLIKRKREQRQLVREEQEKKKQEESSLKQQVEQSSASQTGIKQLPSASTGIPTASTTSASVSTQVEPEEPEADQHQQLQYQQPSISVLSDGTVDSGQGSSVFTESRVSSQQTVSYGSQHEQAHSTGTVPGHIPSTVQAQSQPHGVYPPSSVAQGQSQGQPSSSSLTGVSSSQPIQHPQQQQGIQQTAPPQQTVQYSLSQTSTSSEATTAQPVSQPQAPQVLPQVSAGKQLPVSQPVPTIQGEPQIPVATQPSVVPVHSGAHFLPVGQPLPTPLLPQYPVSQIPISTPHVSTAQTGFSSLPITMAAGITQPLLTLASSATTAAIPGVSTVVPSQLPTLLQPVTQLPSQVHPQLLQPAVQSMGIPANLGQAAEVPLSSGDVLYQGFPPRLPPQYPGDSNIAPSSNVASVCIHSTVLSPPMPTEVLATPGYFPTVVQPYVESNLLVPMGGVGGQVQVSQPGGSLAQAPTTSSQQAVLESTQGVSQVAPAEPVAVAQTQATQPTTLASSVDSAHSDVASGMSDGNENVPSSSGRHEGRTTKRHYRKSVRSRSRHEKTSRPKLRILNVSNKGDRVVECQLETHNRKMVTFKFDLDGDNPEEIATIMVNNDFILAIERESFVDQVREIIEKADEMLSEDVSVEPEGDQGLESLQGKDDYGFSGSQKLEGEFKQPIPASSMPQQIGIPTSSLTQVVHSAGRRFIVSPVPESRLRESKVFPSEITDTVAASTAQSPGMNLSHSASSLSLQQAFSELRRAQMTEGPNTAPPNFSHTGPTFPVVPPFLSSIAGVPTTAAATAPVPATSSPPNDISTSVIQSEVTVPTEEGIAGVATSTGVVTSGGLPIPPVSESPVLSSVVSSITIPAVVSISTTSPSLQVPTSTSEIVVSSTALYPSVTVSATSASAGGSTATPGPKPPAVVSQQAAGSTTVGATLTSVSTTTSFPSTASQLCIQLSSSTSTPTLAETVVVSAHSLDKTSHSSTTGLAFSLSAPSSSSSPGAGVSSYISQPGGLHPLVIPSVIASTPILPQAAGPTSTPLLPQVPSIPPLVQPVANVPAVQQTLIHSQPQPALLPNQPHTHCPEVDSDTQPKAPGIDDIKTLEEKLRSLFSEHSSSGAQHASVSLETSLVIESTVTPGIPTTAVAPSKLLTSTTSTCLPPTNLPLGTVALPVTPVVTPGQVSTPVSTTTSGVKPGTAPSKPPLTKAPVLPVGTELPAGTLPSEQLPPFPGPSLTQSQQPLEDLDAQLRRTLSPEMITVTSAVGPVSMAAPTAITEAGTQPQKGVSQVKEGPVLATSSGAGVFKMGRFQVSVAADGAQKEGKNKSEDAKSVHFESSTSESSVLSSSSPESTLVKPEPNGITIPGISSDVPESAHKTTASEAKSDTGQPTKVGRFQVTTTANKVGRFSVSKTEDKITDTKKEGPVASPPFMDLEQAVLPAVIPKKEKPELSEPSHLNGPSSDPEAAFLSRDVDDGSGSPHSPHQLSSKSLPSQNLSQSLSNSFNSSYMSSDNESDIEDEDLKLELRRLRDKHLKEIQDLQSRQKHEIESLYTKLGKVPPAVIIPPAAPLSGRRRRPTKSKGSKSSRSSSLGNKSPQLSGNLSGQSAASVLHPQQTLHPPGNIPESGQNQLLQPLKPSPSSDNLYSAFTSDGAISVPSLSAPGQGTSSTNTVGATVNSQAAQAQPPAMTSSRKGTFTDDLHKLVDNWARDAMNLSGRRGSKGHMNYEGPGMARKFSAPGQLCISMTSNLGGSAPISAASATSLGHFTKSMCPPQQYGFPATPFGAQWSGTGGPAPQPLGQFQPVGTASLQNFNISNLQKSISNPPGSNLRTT
From the text: as §1

[4] = molecular target: T3, ULK1 (Homo sapiens, UniProt O75385); assay: Kinase profiling ULK1; details: for remaining activity at 100 µM: read-out: residual kinase activity, ULK1
T3 sequence (O75385 1-1050): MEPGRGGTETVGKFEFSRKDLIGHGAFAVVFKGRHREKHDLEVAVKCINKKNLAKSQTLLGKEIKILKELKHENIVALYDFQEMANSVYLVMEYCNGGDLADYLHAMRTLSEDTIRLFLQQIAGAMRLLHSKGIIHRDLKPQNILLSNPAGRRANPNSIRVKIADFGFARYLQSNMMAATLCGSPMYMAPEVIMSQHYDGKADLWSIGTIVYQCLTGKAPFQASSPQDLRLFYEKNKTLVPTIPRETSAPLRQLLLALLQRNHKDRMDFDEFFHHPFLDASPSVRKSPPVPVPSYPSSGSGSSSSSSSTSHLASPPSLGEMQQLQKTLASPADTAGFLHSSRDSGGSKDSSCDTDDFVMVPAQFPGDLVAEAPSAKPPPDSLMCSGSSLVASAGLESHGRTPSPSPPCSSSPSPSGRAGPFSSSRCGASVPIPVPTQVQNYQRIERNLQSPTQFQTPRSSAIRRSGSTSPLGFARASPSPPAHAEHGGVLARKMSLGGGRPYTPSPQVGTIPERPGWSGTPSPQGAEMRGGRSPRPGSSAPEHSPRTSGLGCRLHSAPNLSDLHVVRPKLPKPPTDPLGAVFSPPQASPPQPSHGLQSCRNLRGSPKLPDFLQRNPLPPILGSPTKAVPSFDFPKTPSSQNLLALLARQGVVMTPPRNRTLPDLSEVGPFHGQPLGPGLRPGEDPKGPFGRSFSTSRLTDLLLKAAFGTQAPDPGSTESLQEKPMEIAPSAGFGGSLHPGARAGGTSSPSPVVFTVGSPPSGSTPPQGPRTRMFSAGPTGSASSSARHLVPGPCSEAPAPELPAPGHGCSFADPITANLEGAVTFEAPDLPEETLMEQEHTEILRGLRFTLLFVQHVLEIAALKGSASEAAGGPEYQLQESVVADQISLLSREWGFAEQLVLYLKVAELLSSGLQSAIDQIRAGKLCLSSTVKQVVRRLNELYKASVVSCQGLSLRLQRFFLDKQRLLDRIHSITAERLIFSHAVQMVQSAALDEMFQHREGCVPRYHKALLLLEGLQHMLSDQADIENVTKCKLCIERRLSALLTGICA
From the text: as §1

[5] = 100 micromolar inhibitor concentration, 100 is no change
[6] = 100 micromolar inhibitor, 100 = no change

Structure (SMILES)	remaining activity at 100 µM [1, 5] [%]	remaining activity at 100 µM [2, 5] [%]	remaining activity at 100 µM [3, 5] [%]	residual kinase activity, MARK4 [1, 5]	residual kinase activity, EIF2AK3 [2, 5]	residual kinase activity, WNK1 [3, 5]	residual kinase activity, ULK1 [4, 5]	other results
CC(=O)Nc1nc2cc(O)ccc2s1 [Compound 01-66, N-(5-hydroxybenzo[d]thiazol-2-yl)acetamide]	–	–	–	–	–	–	–	remaining activity at 100 µM [1]: 80%; remaining activity at 100 µM [2]: 59%; remaining activity at 100 µM [3]: 101%
CC(=O)Nc1nc2ccc(O)cc2s1 [Compound 01-71]	66	77	96	–	–	–	–	–
O=C(Nc1nc2cc(O)ccc2s1)c1cccnc1 [Compound 03-33]	–	–	–	95	87	103	88	–
O=C(Nc1nc2cc(O)ccc2s1)c1ccccn1 [Compound 03-13]	–	–	–	71	89	100	78	–
CC(=O)Nc1nc2cc(C)ccc2s1 [Compound 03-76]	–	–	–	80	97	104	82	–
O=C(Nc1nc2ccc(O)cc2s1)c1ccncc1 [Compound 08-42]	–	–	–	82	59	89	69	–
O=C(Nc1nc2ccc(O)cc2s1)c1ccccn1 [Compound 03-12]	–	–	–	90	73	91	96	–
CC(=O)Nc1cccc(NC(=O)c2nc3ccc(O)cc3s2)c1 [Compound 03-07, N-(3-acetamidophenyl)-6-hydroxybenzo[d]thiazole-2-carboxamide]	–	–	–	–	–	–	–	remaining activity at 100 µM [1, 6]: 71%; remaining activity at 100 µM [2, 6]: 69%; remaining activity at 100 µM [3, 6]: 115%; remaining activity at 100 µM [4, 6]: 70%
O=C(Nc1nc2ccc(O)cc2s1)c1ccccc1 [Compound 03-60]	–	–	–	67	45	108	47	–
CC(=O)Nc1nc2ccccc2s1 [Compound 03-32]	–	–	–	91	104	98	102	–
CC(=O)Nc1nc2ccc(C#N)cc2s1 [Compound 01-94]	51	78	101	–	–	–	–	remaining activity at 100 µM [4, 5]: 92%
O=C(Nc1nc2cc(O)ccc2s1)c1ccncc1 [Compound 03-11]	–	–	–	102	65	88	90	–
COc1ccc2sc(NC(C)=O)nc2c1 [Compound 03-21]	100	82	121	–	–	–	–	remaining activity at 100 µM [4, 5]: 103%
CC(=O)Nc1nc2cc(C(F)(F)F)ccc2s1 [Compound 03-73]	97	100	128	–	–	–	–	remaining activity at 100 µM [4, 5]: 91%
CC(=O)Nc1nc2cc(F)ccc2s1 [Compound 03-77]	86	99	99	–	–	–	–	remaining activity at 100 µM [4, 5]: 83%
CC(=O)Nc1nc2ccc(C(F)(F)F)cc2s1 [Compound 01-90]	66	105	100	–	–	–	–	remaining activity at 100 µM [4, 5]: 87%
O=C(Nc1nc2ccc(O)cc2s1)c1cccnc1 [Compound 08-44]	–	–	–	77	51	99	78	–
